In patent publication US20240132475A1, “SUBSTITUTED PYRAZOLYL COMPOUNDS AS MALT-1 INHIBITORS” (AURIGENE ONCOLOGY LIMITED, priority 2021, published 2024):

Biological target: T1, MALT-1 (Isoform 1) (Homo sapiens, UniProt Q9UDY8)
T1 construct: using recombinant MALT-1 (Isoform 1, aa-840) generated in house; made in house
T1 sequence (Q9UDY8 1-824): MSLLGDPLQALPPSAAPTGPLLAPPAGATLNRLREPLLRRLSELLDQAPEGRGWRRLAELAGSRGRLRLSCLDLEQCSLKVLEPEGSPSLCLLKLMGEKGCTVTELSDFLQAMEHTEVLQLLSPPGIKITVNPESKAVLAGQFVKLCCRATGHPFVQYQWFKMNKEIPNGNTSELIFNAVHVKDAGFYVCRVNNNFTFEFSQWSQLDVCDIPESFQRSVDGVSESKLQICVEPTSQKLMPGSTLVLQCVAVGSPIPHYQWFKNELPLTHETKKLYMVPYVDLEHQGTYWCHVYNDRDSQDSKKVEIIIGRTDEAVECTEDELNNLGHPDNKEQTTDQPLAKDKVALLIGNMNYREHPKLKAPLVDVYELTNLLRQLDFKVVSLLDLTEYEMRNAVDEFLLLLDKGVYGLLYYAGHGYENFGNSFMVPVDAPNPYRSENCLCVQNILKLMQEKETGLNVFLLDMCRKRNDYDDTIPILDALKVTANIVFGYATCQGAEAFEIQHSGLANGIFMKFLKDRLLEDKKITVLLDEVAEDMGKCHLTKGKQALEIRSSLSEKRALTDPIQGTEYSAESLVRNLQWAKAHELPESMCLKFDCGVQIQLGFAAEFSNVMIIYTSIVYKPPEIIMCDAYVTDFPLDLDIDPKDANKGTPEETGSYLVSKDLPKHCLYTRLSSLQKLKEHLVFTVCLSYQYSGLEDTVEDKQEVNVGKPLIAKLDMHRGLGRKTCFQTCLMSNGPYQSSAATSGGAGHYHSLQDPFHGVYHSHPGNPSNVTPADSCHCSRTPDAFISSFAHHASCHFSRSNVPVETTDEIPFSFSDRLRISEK
Experiment: MALT-1 (Isoform 1) enzyme fluorescent biochemical assay
Conditions: for IC50: dose-response, sigmoidal curve fit, reported as groups A, B, C; for inhibition at 1 µM: test compound 1 μM, recombinant MALT-1 1.5 nM, read-out: Percent Inhibition (1 μM)
Protocol: The potency of compounds to inhibit MALT-1 (Isoform 1) enzyme was tested in a Fluorescent assay using recombinant MALT-1 (Isoform 1, aa-840) generated in house. The assay buffer was 50 mM HEPES (pH 7.5), 100 mM NaCl, 10 mM DTT, 1 mM EDTA, 0.9 M sodium citrate, 0.01% CHAPS. 1.5 nM of MALT-1 enzyme was incubated with test compounds ([…]) (1% DMSO) in the presence of buffer for 30 minutes at 30° C. The protease reaction was initiated by adding […] of AC-LRSR-MAC (Peptide International, USA) substrate and incubated for 240 min. After 240 min incubation, fluorescence emission of the samples at 460 nm was measured at an excitation of 355 nm. The percent inhibition was calculated using the following formula: […]. IC50 values were determined by fitting the dose-response data to sigmoidal curve fitting equation using Graph pad prism software V8.
ND represents Not Determined.

IC50 [nM] | inhibition at 1 µM [%] | Compound
> 1000 | 22 | O=C(Nc1ccnc(C(F)(F)F)c1)c1cnn(Cc2cccc(F)c2)c1C(F)(F)F [Compound 19, 1-(3-fluorobenzyl)-5-(trifluoromethyl)-N-(2-(trifluoromethyl)pyridin-4-yl)-1H-pyrazole-4-carboxamide]
> 1000 | 46 | N#Cc1cc(NC(=O)c2cnn(Cc3ccccc3Cl)c2C(F)(F)F)cnc1-n1nccn1 [Compound 20, 1-(2-chlorobenzyl)-N-(5-cyano-6-(2H-1,2,3-triazol-2-y1)pyridin-3-yl)-5-(trifluoromethyl)-1H-pyrazole-4-carboxamide]
> 1000 | 23 | N#Cc1cc(NC(=O)c2cnn(Cc3ccc(F)c(Cl)c3)c2C(F)(F)F)cnc1-n1nccn1 [Compound 21, 1-(3-chloro-4-fluorobenzy1)-N-(5-cyano-6-(2H-1,2,3-triazol-2-yl)pyridin-3-yl)-5-(trifluoromethyl)-1H-pyrazole-4-carboxamide]
 | 41 | COc1ncc(NC(=O)c2cnn(Cc3cccc(F)c3)c2C(F)(F)F)cc1Cl [Compound 22, N-(5-chloro-6-methoxypyridin-3-yl)-1-(3-fluorobenzyl)-5-(trifluoromethyl)-1H-pyrazole-4-carboxamide]
> 1000 | 45 | N#Cc1cc(NC(=O)c2cnn(Cc3cccc(F)c3)c2C2CC2)cnc1-n1nccn1 [Compound 23, N-(5-cyano-6-(2H-1,2,3-triazol-2-yl)pyridin-3-yl)-5-cyclopropyl-1-(3-fluorobenzyl)-1H-pyrazole-4-carboxamide]
< 250 | 100 | O=C(Nc1cnc(-n2nccn2)c(Cl)c1)c1cnn(Cc2cccc(F)c2)c1C(F)(F)F [Compound 25, N-(5-chloro-6-(2H-1,2,3-triazol-2-yl)pyridin-3-yl)-1-(3-fluorobenzyl)-5-(trifluoromethyl)-1H-pyrazole-4-carboxamide]
< 250 | 100 | Cc1c(F)cccc1Cn1ncc(C(=O)Nc2cnc(-n3nccn3)c(C#N)c2)c1C(F)(F)F [Compound 26, N-(5-cyano-6-(2H-1,2,3-triazol-2-yl)pyridin-3-y1)-1-(3-fluoro-2-methylbenzyl)-5-(trifluoromethyl)-1H-pyrazole-4-carboxamide]
< 250 | 100 | N#Cc1cc(NC(=O)c2cnn(Cc3cccc(F)c3F)c2C(F)(F)F)cnc1-n1nccn1 [Compound 27, N-(5-cyano-6-(2H-1,2,3-triazol-2-yl)pyridin-3-y1)-1-(2,3-difluorobenzyl)-5-(trifluoromethyl)-1H-pyrazole-4-carboxamide]
251 to 1000 | 84 | Cc1ccc(F)cc1Cn1ncc(C(=O)Nc2cnc(-n3nccn3)c(C#N)c2)c1C(F)(F)F [Compound 28, N-(5-cyano-6-(2H-1,2,3-triazol-2-yl)pyridin-3-yl)-1-(5-fluoro-2-methylbenzyl)-5-(trifluoromethyl)-1H-pyrazole-4-carboxamide]
251 to 1000 | 70 | N#Cc1cc(NC(=O)c2cnn(Cc3cc(F)ccc3F)c2C(F)(F)F)cnc1-n1nccn1 [Compound 29, N-(5-cyano-6-(2H-1,2,3-triazol-2-yl)pyridin-3-y1)-1-(2,5-difluorobenzyl)-5-(trifluoromethyl)-1H-pyrazole-4-carboxamide]
251 to 1000 | 97 | Cc1c(F)cccc1Cn1ncc(C(=O)Nc2cnc(-n3nccn3)c(F)c2)c1C(F)(F)F [Compound 30, 1-(3-fluoro-2-methylbenzyl)-N-(5-fluoro-6-(2H-1,2,3-triazol-2-yl)pyridin-3-y1)-5-(trifluoromethyl)-1H-pyrazole-4-carboxamide]
< 250 | 95 | Cc1c(F)cccc1Cn1ncc(C(=O)Nc2cnc(-n3nccn3)c(C(F)(F)F)c2)c1C(F)(F)F [Compound 31, N-(6-(2H-1,2,3-triazol-2-y1)-5-(trifluoromethyl)pyridin-3-y1)-1-(3-fluoro-2-methylbenzy1)-5-(trifluoromethyl)-1H-pyrazole-4-carboxamide]
< 250 | 99 | Cc1c(F)cccc1Cn1ncc(C(=O)Nc2cnc(-n3nccn3)c(Cl)c2)c1C(F)(F)F [Compound 32, N-(5-chloro-6-(2H-1,2,3-triazol-2-y1)pyridin-3-y1)-1-(3-fluoro-2-methylbenzyl)-5-(trifluoromethyl)-1H-pyrazole-4-carboxamide]
< 250 | 99 | N#Cc1cc(NC(=O)c2cnn(Cc3cccc(F)c3C(F)(F)F)c2C(F)(F)F)cnc1-n1nccn1 [Compound 33, N-(5-cyano-6-(2H-1,2,3-triazol-2-yl)pyridin-3-y1)-1-(3-fluoro-2-(trifluoromethyl)benzy1)-5-(trifluoromethyl)-1H-pyrazole-4-carboxamide]
< 250 | 99 | O=C(Nc1cnc(-n2nccn2)c(Cl)c1)c1cnn(Cc2cccc(F)c2Cl)c1C(F)(F)F [Compound 34, 1-(2-chloro-3-fluorobenzy1)-N-(5-chloro-6-(2H-1,2,3-triazol-2-yl)pyridin-3-yl)-5-(trifluoromethyl)-1H-pyrazole-4-carboxamide]
> 1000 | 42 | COc1cc(F)cc(Cn2ncc(C(=O)Nc3cnc(-n4nccn4)c(C#N)c3)c2C(F)(F)F)c1 [Compound 35, N-(5-cyano-6-(2H-1,2,3-triazol-2-yl)pyridin-3-yl)-1-(3-fluoro-5-methoxybenzyl)-5-(trifluoromethyl)-1H-pyrazole-4-carboxamide]
251 to 1000 | 86 | N#Cc1cc(NC(=O)c2cnn(Cc3cc(F)cc(F)c3)c2C(F)(F)F)cnc1-n1nccn1 [Compound 36, N-(5-cyano-6-(2H-1,2,3-triazol-2-y1)pyridin-3-yl)-1-(3,5-difluorobenzyl)-5-(trifluoromethyl)-1H-pyrazole-4-carboxamide]
251 to 1000 | 81 | COc1ncc(NC(=O)c2cnn(Cc3cccc(F)c3Cl)c2C(F)(F)F)cc1Cl [Compound 37, 1-(2-chloro-3-fluorobenzyl)-N-(5-chloro-6-methoxypyridin-3-y1)-5-(trifluoromethyl)-1H-pyrazole-4-carboxamide]
< 250 | 100 | N#Cc1cc(NC(=O)c2cnn(Cc3cccc(F)c3Br)c2C(F)(F)F)cnc1-n1nccn1 [Compound 38, 1-(2-bromo-3-fluorobenzy1)-N-(5-cyano-6-(2H-1,2,3-triazol-2-yl)pyridin-3-yl)-5-(trifluoromethyl)-1H-pyrazole-4-carboxamide]
< 250 | 100 | COc1c(F)cccc1Cn1ncc(C(=O)Nc2cnc(-n3nccn3)c(C#N)c2)c1C(F)(F)F [Compound 39, N-(5-cyano-6-(2H-1,2,3-triazol-2-yl)pyridin-3-y1)-1-(3-fluoro-2-methoxybenzyl)-5-(trifluoromethyl)-1H-pyrazole-4-carboxamide]
251 to 1000 | 75 | O=C(Nc1ccnc(C(F)(F)F)c1)c1cnn(Cc2cccc(F)c2Cl)c1C(F)(F)F [Compound 40, 1-(2-chloro-3-fluorobenzyl)-5-(trifluoromethyl)-N-(2-(trifluoromethyl)pyridin-4-y1)-1H-pyrazole-4-carboxamide]
